Source: ChEMBL document CHEMBL1153329, “Bioactive metabolites produced by Chaetomium globosum, an endophytic fungus isolated from Ginkgo biloba” (Bioorg Med Chem Lett, 2009)

Legend:
[1] = Toxicity against Artemia salina assessed as mortality rate at 10 ug/mL after 24 hrs by small modified microtiter-plate method; type: organism-based; details: in vivo, read-out: Activity
Rhizomucor miehei = assay: Antimicrobial activity against Mucor miehei at 10 ug/disk by agar diffusion method; type: functional; details: read-out: IZ

With C/C1=C\[C@@H](C)C/C=C/[C@H]2[C@@H]3O[C@]3(C)[C@@H](C)[C@H]3[C@H](Cc4c[nH]c5ccccc45)NC(=O)[C@]32C(=O)/C=C/C(=O)[C@@H]1O [CHAETOGLOBOSIN A] the mortality at 24 h, 10 ug/mL [1] was 83.4% and the zone of inhibition at 10 µg/disc (Rhizomucor miehei) was 25 mm.
Work on C/C1=C\[C@@H](C)C/C=C/[C@H]2[C@@H]3O[C@]3(C)[C@@H](C)[C@H]3[C@H](Cc4c[nH]c5ccccc45)NC(=O)[C@]32C(=O)CCC(=O)C1=O [CHAETOGLOBOSIN C] yielded a mortality at 24 h, 10 ug/mL [1] of 75.3% and a zone of inhibition at 10 µg/disc (Rhizomucor miehei) of 15 mm.
C[C@H](/C=C/C1=CC2=C(Cl)C(=O)[C@@]3(C)O[C@]4(O)[C@H](C)[C@@H](C)OC(=O)[C@@H]4[C@H]3C2=CO1)[C@@H](C)O [CHAETOMUGILIN A] gave a mortality at 24 h, 10 ug/mL [1] of 78.3%.
Molecule CC[C@H](C)/C=C/C1=CC2=C(Cl)C(=O)[C@@]3(C)O[C@]4(O)[C@H](C)[C@@H](C)OC(=O)[C@@H]4[C@H]3C2=CO1 [CHAETOMUGILIN D] has a mortality at 24 h, 10 ug/mL [1] of 75.2%.
